Data published in publication PMC12919657 (Results in chemistry, 2025).

Experiment: pKa determination
Assay type: physicochemical
Conditions: methanol / 1 N HCl solution

pKa: 8.22 ± 0.09
Structure (SMILES): O=C(CCCN1CCC(O)(c2ccc(Cl)cc2)CC1)c1ccc(F)cc1 [Haloperidol]
